{"source": "patent US4326054A", "about": "“Cleomycins and process for producing same” (Zaidan Hojin Biseibutsu Kagaku Kenkyu Kai, priority 1979, dated 1982)", "type_in_all_cases": "cell-based", "key": {"[1]": {"tested_on": "HeLa S3 cells", "assay": "Activity on cultured HeLa S3 cells (growth inhibition)", "details": "copper-free hydrochloride", "procedure": "Fifty percent inhibitory cocentration (LD50) was determined on a test compound cleomycin (No. 33) and on a reference compound bleomycin A2, from the percent of growth inhibition measured on HeLa S3 cells after the cells had been cultured in the presence of each of the compounds."}, "[2]": {"tested_on": "Mycobacterium smegmatis ATCC 607", "assay": "Antimicrobial activity, agar plate-cylinder method, bleomycin A2 as standard (1,000 u/mg)", "details": "copper-free form", "procedure": "Typical examples of the biological activities measured on cleomycins (copper-free form) are illustrated below.\nComparison was made with the relevant antibiotics bleomycins. The relative antimicrobial potency (u/mg) against Mycobacterium smegmatis ATCC 607 was measured by agar plate-cylinder method using bleomycin A2 as a standard (1,000 u/mg).\n(Note: The antimicrobial potency was determined by taking bleomycin\nA2 as 1,000 μ/mg and using Mycobacterium smegmatis ATCC 607 as a\ntest bacterium. Herinafter, the same was applied.)"}, "[3]": {"tested_on": "Mycobacterium smegmatis ATCC 607", "assay": "Antimicrobial activity, agar plate-cylinder method, bleomycin A2 as standard (1,000 u/mg)", "details": "Examples, Step A; hydrochloride, copper-containing form; bleomycin A2 = 1,000 u/mg"}}}
{"smiles": "Cc1c(N)nc(C(CC(N)=O)NCC(N)C(N)=O)nc1C(=O)NC(C(=O)NC(C)C(O)C(C)C(=O)NC(C(=O)NCCc1nc(-c2nc(C(=O)NCCCNC(C)c3ccccc3)cs2)cs1)C1(O)CC1)C(OC1OC(CO)C(O)C(O)C1OC1OC(CO)C(O)C(OC(N)=O)C1O)c1cnc[nH]1", "note": "(stereo not shown) [Compound No. 33, 3-[(s)-1'-phenylethylamino]propylaminocleomycin]", "values": [{"measurement": "anti-HeLa action compared with bleomycin A2 (in words)", "setting": "[1]", "result": "activity nearly equal to that of bleomycin A2"}, {"measurement": "Antimicrobial potency", "setting": "[2]; Example 1, Step B, sulfate, bleomycin A2 = 1,000 u/mg", "result": "10,949 u/mg"}, {"measurement": "Antimicrobiral potency", "setting": "[2]; Table 5, relative to bleomycin A2 = 1,000 u/mg", "result": "10,949 u/mg"}, {"measurement": "Antimicrobial potency", "setting": "[3]", "result": "11,300 u/mg"}]}
